This note sets out measurements from ChEMBL document CHEMBL1153037, “Synthesis and structure-activity relationship studies of cytotoxic anhydrovinblastine amide derivatives” (J Nat Prod, 2009).

A word on the IC50: it is the concentration needed to halve the response being measured. A high value points to weaker potency in that assay. The inhibition in vivo is the percentage by which the read-out fell short of the control. High values mean a response far below the control, low ones a response near the control.

Counter-ions that a name gives are not always drawn.

The subject of assay [1] is A549. Nature of the assay: Cytotoxicity against human A549 cells by sulforhodamine B assay. Type of assay: functional, cell-based. (In general: The SRB assay estimates cell density from bound dye.)
Assay [2] deals with HeLa. The experiment in a line: Cytotoxicity against human HeLa cells by sulforhodamine B assay. Type of assay: functional, cell-based.
In assay [3] the test system is CCRF S-180. The experiment in a line: Antitumor activity against mouse S180 cells xenografted in Kunming mouse at 10 mg/kg, iv administered on day 1 and 4. The settings on record: for inhibition in vivo at 10 mg/kg: Mus musculus. In kind it is functional.
Assay [4] relates to CCRF S-180. Nature of the assay: Antitumor activity against mouse S180 cells xenografted in Kunming mouse at 20 mg/kg, iv administered as single dose on day 1. In kind it is functional. The settings on record: CCRF S-180, 24 h.
Assay [5] deals with CCRF S-180. Nature of the assay: Toxicity against mouse S180 cells xenografted in Kunming mouse at 10 mg/kg, iv administered on day 1 and 4. Type of assay: functional, organism-based. Also noted: dose 10 mg/kg.

Turning to `CCC1=C[C@@H]2CN(CCc3c([nH]c4ccccc34)[C@@](C(=O)OC)(c3cc4c(cc3OC)N(C)[C@H]3[C@@](O)(CNC(=O)Cc5ccccc5)[C@H](OC(C)=O)[C@]5(CC)C=CCN6CC[C@]43[C@@H]65)C2)C1`, the IC50 in assay [1] (Homo sapiens, A549) came to 0.039 µM; in assay [2] it was 0.078 µM.

Regarding `CCC1=C[C@@H]2CN(CCc3c([nH]c4ccccc34)[C@@](C(=O)OC)(c3cc4c(cc3OC)N(C)[C@H]3[C@@](O)(CNC(=O)c5ccccc5Cl)[C@H](OC(C)=O)[C@]5(CC)C=CCN6CC[C@]43[C@@H]65)C2)C1`, the IC50 stood at 0.024 µM in assay [1] (Homo sapiens, A549) and 0.089 µM in assay [2].

With `CCCC(=O)NC[C@@]1(O)[C@H](OC(C)=O)[C@]2(CC)C=CCN3CC[C@@]4(c5cc([C@@]6(C(=O)OC)C[C@@H]7C=C(CC)CN(CCc8c6[nH]c6ccccc86)C7)c(OC)cc5N(C)[C@@H]14)[C@@H]32`, the IC50 in assay [1] (Homo sapiens, A549) is 0.096 µM; in assay [2] it was 0.097 µM.

On to `CCC1=C[C@@H]2CN(CCc3c([nH]c4ccccc34)[C@@](C(=O)OC)(c3cc4c(cc3OC)N(C)[C@H]3[C@@](O)(CNC(C)=O)[C@H](OC(C)=O)[C@]5(CC)C=CCN6CC[C@]43[C@@H]65)C2)C1`, for which the IC50 in assay [1] (Homo sapiens, A549) worked out at 0.022 µM; in assay [2] it was 0.444 µM.

As to `CCC1=C[C@@H]2CN(CCc3c([nH]c4ccccc34)[C@@](C(=O)OC)(c3cc4c(cc3OC)N(C)[C@H]3[C@@](O)(CNC(=O)C5CCC5)[C@H](OC(C)=O)[C@]5(CC)C=CCN6CC[C@]43[C@@H]65)C2)C1`, the IC50 in assay [1] (Homo sapiens, A549) is 0.034 µM; in assay [2] it was 0.068 µM.

Regarding `CCC1=C[C@@H]2CN(CCc3c([nH]c4ccccc34)[C@@](C(=O)OC)(c3cc4c(cc3OC)N(C)[C@H]3[C@@](O)(CNC(=O)C(C)C)[C@H](OC(C)=O)[C@]5(CC)C=CCN6CC[C@]43[C@@H]65)C2)C1`, the IC50 in assay [1] (Homo sapiens, A549) turned out to be 0.101 µM; in assay [2], 0.132 µM.

Consider `CCC1=C[C@@H]2CN(CCc3c([nH]c4ccccc34)[C@@](C(=O)OC)(c3cc4c(cc3OC)N(C)[C@H]3[C@@](O)(CNC(=O)c5ccccc5OC)[C@H](OC(C)=O)[C@]5(CC)C=CCN6CC[C@]43[C@@H]65)C2)C1`, for which the IC50 turned out to be 0.01 µM in assay [1] (Homo sapiens, A549) and 0.021 µM in assay [2].

`CCC1=C[C@@H]2CN(C1)Cc1c([nH]c3ccccc13)[C@@](C(=O)OC)(c1cc3c(cc1OC)N(C)[C@H]1[C@@](O)(C(=O)OC)[C@H](OC(C)=O)[C@]4(CC)C=CCN5CC[C@]31[C@@H]54)C2` [VINORELBINE TARTRATE] displayed an inhibition in vivo at 10 mg/kg in assay [3] (CCRF S-180, iv, 24 h) of 62.5%.

Turning to `CCC1=C[C@@H]2CN(CCc3c([nH]c4ccccc34)[C@@](C(=O)OC)(c3cc4c(cc3OC)N(C)[C@H]3[C@@](O)(CNC(=O)c5ccc([N+](=O)[O-])cc5)[C@H](OC(C)=O)[C@]5(CC)C=CCN6CC[C@]43[C@@H]65)C2)C1`, the IC50 came out at 0.033 µM in assay [1] (Homo sapiens, A549) and 0.023 µM in assay [2].

`CCC1=C[C@@H]2CN(CCc3c([nH]c4ccccc34)[C@@](C(=O)OC)(c3cc4c(cc3OC)N(C)[C@H]3[C@@](O)(CNC(=O)CC(C)C)[C@H](OC(C)=O)[C@]5(CC)C=CCN6CC[C@]43[C@@H]65)C2)C1`: the IC50 in assay [1] (Homo sapiens, A549) was 0.152 µM; in assay [2] it was 0.085 µM.

With `CCC1=C[C@@H]2CN(CCc3c([nH]c4ccccc34)[C@@](C(=O)OC)(c3cc4c(cc3OC)N(C)[C@H]3[C@@](O)(CNC(=O)c5ccc(OC)cc5)[C@H](OC(C)=O)[C@]5(CC)C=CCN6CC[C@]43[C@@H]65)C2)C1`, the IC50 in assay [1] (Homo sapiens, A549) worked out at 0.03 µM; in assay [2], 0.139 µM.

Turning to `CCC1=C[C@@H]2CN(C1)Cc1c([nH]c3ccccc13)[C@@](C(=O)OC)(c1cc3c(cc1OC)N(C)[C@H]1[C@@](O)(C(=O)OC)[C@H](OC(C)=O)[C@]4(CC)C=CCN5CC[C@]31[C@@H]54)C2` [VINORELBINE], in assay [1] (a549), the IC50 worked out at 0.03 µM. In addition, the “inhibition (INH)” value in assay [3] is listed as 69.4%.

Consider `CCC(=O)NC[C@@]1(O)[C@H](OC(C)=O)[C@]2(CC)C=CCN3CC[C@@]4(c5cc([C@@]6(C(=O)OC)C[C@@H]7C=C(CC)CN(CCc8c6[nH]c6ccccc86)C7)c(OC)cc5N(C)[C@@H]14)[C@@H]32`, for which the IC50 was found to be 0.043 µM in assay [1] (Homo sapiens, A549) and 0.057 µM in assay [2]. Moreover, the inhibition in vivo at 10 mg/kg in assay [3] (CCRF S-180, 24 h) was 84.4%. Also, at 20 mg/kg the inhibition in vivo in assay [4] was 90%. Also, the Activity result in assay [5] is “Not toxic”.

Consider `CCC1=C[C@@H]2CN(CCc3c([nH]c4ccccc34)[C@@](C(=O)OC)(c3cc4c(cc3OC)N(C)[C@H]3[C@@](O)(CNC(=O)C(C)(C)C)[C@H](OC(C)=O)[C@]5(CC)C=CCN6CC[C@]43[C@@H]65)C2)C1`, for which the IC50 in assay [1] (Homo sapiens, A549) is 0.095 µM; in assay [2], 0.061 µM.

Regarding `CCC1=C[C@@H]2CN(CCc3c([nH]c4ccccc34)[C@@](C(=O)OC)(c3cc4c(cc3OC)N(C)[C@H]3[C@@](O)(CNC(=O)c5cccc(Cl)c5)[C@H](OC(C)=O)[C@]5(CC)C=CCN6CC[C@]43[C@@H]65)C2)C1`, the IC50 in assay [1] (Homo sapiens, A549) turned out to be 0.026 µM; in assay [2] it was 0.067 µM.

Take `CCC1=C[C@@H]2CN(CCc3c([nH]c4ccccc34)[C@@](C(=O)OC)(c3cc4c(cc3OC)N(C)[C@H]3[C@@](O)(CNC(=O)c5ccc(Cl)cc5)[C@H](OC(C)=O)[C@]5(CC)C=CCN6CC[C@]43[C@@H]65)C2)C1`: the IC50 in assay [1] (Homo sapiens, A549) was found to be 0.025 µM; in assay [2], 0.047 µM.

For `CCC1=C[C@@H]2CN(CCc3c([nH]c4ccccc34)[C@@](C(=O)OC)(c3cc4c(cc3OC)N(C)[C@H]3[C@@](O)(CNC(=O)C5CC5)[C@H](OC(C)=O)[C@]5(CC)C=CCN6CC[C@]43[C@@H]65)C2)C1`, the IC50 is 0.026 µM in assay [1] (Homo sapiens, A549) and 0.035 µM in assay [2]. In assay [3] (CCRF S-180, 24 h), this compound came in with an inhibition in vivo at 10 mg/kg of 81.3%. The compound also gave an inhibition in vivo at 20 mg/kg in assay [4] of 88.8%.

`CCC1=C[C@@H]2CN(CCc3c([nH]c4ccccc34)[C@@](C(=O)OC)(c3cc4c(cc3OC)N(C)[C@H]3[C@@](O)(CNC(=O)c5ccc6c(c5)OCO6)[C@H](OC(C)=O)[C@]5(CC)C=CCN6CC[C@]43[C@@H]65)C2)C1`: the IC50 in assay [1] (Homo sapiens, A549) turned out to be 0.008 µM; in assay [2], 0.033 µM. The inhibition in vivo at 10 mg/kg in assay [3] (CCRF S-180, 24 h) came to 58.1%. The same compound came in with an inhibition in vivo at 20 mg/kg in assay [4] of 66.3%. In assay [5], the Activity entry is “Not toxic”.

On to `CCC1=C[C@@H]2CN(CCc3c([nH]c4ccccc34)[C@@](C(=O)OC)(c3cc4c(cc3OC)N(C)[C@H]3[C@@](O)(CNC(=O)c5ccncc5)[C@H](OC(C)=O)[C@]5(CC)C=CCN6CC[C@]43[C@@H]65)C2)C1`, for which the IC50 in assay [1] (Homo sapiens, A549) is 0.027 µM; in assay [2], 0.024 µM.

On to `CCC1=C[C@@H]2CN(C1)Cc1c([nH]c3ccccc13)[C@@](C(=O)OC)(c1cc3c(cc1OC)N(C)[C@H]1[C@@](O)(C(=O)OC)[C@H](OC(C)=O)[C@]4(CC)C=CCN5CC[C@]31[C@@H]54)C2`, for which, in assay [5], the Activity result was “Not toxic”.

For the compound `CCC1=C[C@@H]2CN(CCc3c([nH]c4ccccc34)[C@@](C(=O)OC)(c3cc4c(cc3OC)N(C)[C@H]3[C@@](O)(CNC(=O)c5ccc(F)cc5)[C@H](OC(C)=O)[C@]5(CC)C=CCN6CC[C@]43[C@@H]65)C2)C1`, the half-inhibitory concentration (IC50) in assay [1] (Homo sapiens, A549) turned out to be 0.02 µM; in assay [2], 0.025 µM.

`CCC1=C[C@@H]2CN(CCc3c([nH]c4ccccc34)[C@@](C(=O)OC)(c3cc4c(cc3OC)N(C)[C@H]3[C@@](O)(CNC(=O)c5ccccc5)[C@H](OC(C)=O)[C@]5(CC)C=CCN6CC[C@]43[C@@H]65)C2)C1`: the IC50 worked out at 0.027 µM in assay [1] (Homo sapiens, A549) and 0.026 µM in assay [2].

Turning to `CCC1=C[C@@H]2CN(CCc3c([nH]c4ccccc34)[C@@](C(=O)OC)(c3cc4c(cc3OC)N(C)[C@H]3[C@@](O)(CNC(=O)CC(C)(C)C)[C@H](OC(C)=O)[C@]5(CC)C=CCN6CC[C@]43[C@@H]65)C2)C1`, the IC50 in assay [1] (Homo sapiens, A549) turned out to be 0.115 µM; in assay [2], 0.093 µM.
